Test [1] has as its system P388. Put plainly: In vivo antitumor activity against mouse P388 cells assessed as increase in life span at 5 mg/kg, ip for 5 days. Type of test: functional.
The nature of test [2]: Antitumor activity against human myeloid leukemia cells xenografted mouse at 3 mg/kg, iv for 14 days. In kind it is functional, Leukemia cell.
The test system of test [3] is L1210. Put plainly: Cytotoxicity against mouse L1210 cells by MTT assay. Type of test: functional, cell-based. A general note: Tetrazolium dyes change colour on reduction, which living cells bring about.
Test [4] relates to Staphylococcus aureus. The test can be described thus: Antimicrobial activity against methicillin-resistant Staphylococcus aureus COL MB5393. In kind it is functional, organism-based.
The subject of test [5] is L1210. Put plainly: Cytotoxicity against mouse L1210 cells assessed as cell viability by trypan blue assay. Type of test: functional, cell-based.
Test [6] deals with L1210. The test can be described thus: Cytotoxicity against mouse L1210 cells assessed as cell lysis after 24 hrs by trypan blue assay. Type of test: functional, cell-based.
Test [7] concerns Bacillus subtilis. Put plainly: Antimicrobial activity against Bacillus subtilis MB964. In kind it is functional.
The subject of test [8] is Escherichia coli. The test can be described thus: Antimicrobial activity against Escherichia coli MB1418. Type of test: functional.
Test [9] relates to Proteus vulgaris. Put plainly: Antimicrobial activity against Proteus vulgaris MB838. Type of test: functional.
Test [10] deals with Pseudomonas aeruginosa. The test can be described thus: Antimicrobial activity against Pseudomonas aeruginosa MB2824. Type of test: functional.
For test [11], the system named is Staphylococcus aureus. The test can be described thus: Antimicrobial activity against Staphylococcus aureus MB108. In kind it is functional.
The test system of test [12] is Enterococcus faecium. The test can be described thus: Antimicrobial activity against Enterococcus faecium MB5572. In kind it is functional.
Test [13] has as its system Pectobacterium atrosepticum. The test can be described thus: Antimicrobial activity against Erwinia atroseptica MB1159. Type of test: functional.

Converted amounts (≈) assume the structure as drawn. The source made the active and inactive calls. No cut-off for these calls is given here.

On to `CC1=C2C(=C[C@@](C)(CO)[C@@H]2O)C(=O)[C@](C)(O)C12CC2`, for which the result in test [1] was inactive.

In the case of `CC1=C2C(=O)C(C)(C)C=C2C(=O)[C@](C)(O)C12CC2` [DEHYDROILLUDIN M], the Activity in test [2] is listed as 75%.

As for `CC1=C2CC(C)(C)C=C2C(=O)[C@](C)(O)C12CC2` [DEOXYILLUDIN M], the Activity in [1] (route intraperitoneal) is recorded as 24%.

With `COc1cccc2c1C(=O)c1c(O)c3c(c(O)c1C2=O)C[C@@](O)(C(=O)CO)C[C@@H]3O[C@H]1C[C@H](N)[C@H](O)[C@H](C)O1` [DOXORUBICIN], the results for the IC50 in test [3], in test [4] and in test [5] were 0.2 µg/mL (≈ 0.368 µM), 16 µg/mL (≈ 29.4 µM) and below 0.1 µg/mL, respectively. In test [6], the outcome was inactive.

Turning to `C=C1C(=O)C2=C(C[C@](C)(C(=O)O)C2)[C@](C)(O)C12CC2` [ILLUDINIC ACID], the MIC in test [7] is 16 µg/mL (≈ 61 µM); in test [8], 125 µg/mL (≈ 477 µM); in test [9], above 125 µg/mL; in test [10], above 125 µg/mL; in test [4] it was 16 µg/mL (≈ 61 µM); in [11] it was 1 µg/mL (≈ 3.81 µM). Besides, the MIC in [12] and in test [13] was above 125 µg/mL in each case. Also, the values for the IC50 in test [3] and in test [5] were 15 µg/mL (≈ 57.2 µM) and 10 µg/mL (≈ 38.1 µM), respectively. In test [6], the result was inactive.

Turning to `CN[C@H](CC(C)C)C(=O)N[C@H]1C(=O)N[C@@H](CC(N)=O)C(=O)N[C@H]2C(=O)N[C@H]3C(=O)N[C@H](C(=O)N[C@H](C(=O)O)c4cc(O)cc(O)c4-c4cc3ccc4O)[C@H](O)c3ccc(c(Cl)c3)Oc3cc2cc(c3O[C@@H]2O[C@H](CO)[C@@H](O)[C@H](O)[C@H]2O[C@H]2C[C@](C)(N)[C@H](O)[C@H](C)O2)Oc2ccc(cc2Cl)[C@H]1O` [VANCOMYCIN], the IC50 in test [3] and in test [5] was above 1000 µg/mL each time. The outcome in test [6] was inactive.

One may read the IC50 as the concentration at which inhibition is half-maximal. What is called MIC is the least concentration at which growth counts as inhibited. Read a low MIC as greater potency.

(Values after ChEMBL document CHEMBL1145706, “Illudinic acid, a novel illudane sesquiterpene antibiotic” (J Nat Prod, 1997).)
